We go through 23 sequences from patent US8012944B2, “Method for treating cancer using IAP antisense oligomer and chemotherapeutic agent” (Pharmascience Inc., priority 2003, dated 2011).

Series [1] deals with XIAP mRNA. Description: XIAP mRNA knock-down in H460 cells (real-time RT-PCR / TaqMan). Type of series: cell-based, human. On the procedure: RNA was extracted from cells lysed in RLT buffer (QIAGEN, Valencia, Calif.), and purified using QIAGEN RNeasy columns/kits. Real-time quantitative PCR was performed on a Perkin-Elmer ABI 7700 Prism PCR machine. RNA was reverse transcribed and amplified according to the TaqMan Universal PCR Master Mix protocol of PE Biosystems, using primers and probes designed to specifically recognize XIAP, HIAP1, survivin, or GAPDH. For human survivin, the forward primer was 5′-[…]-3′ (SEQ ID NO: 263), the reverse primer was 5′-GAAAGGAAAGCGCAACCG-3′ (SEQ ID NO: 264), and the probe was 5′-(FAM)[…](TAMRA)-3′ (SEQ ID NO: 265). For human HIAP1, the forward primer was 5′-[…]-3′ (SEQ ID NO: 266), the reverse primer was 5′-[…]-3′ (SEQ ID NO: 267), and the probe was 5′-(FAM)[…](TAMRA)-3′ (SEQ ID NO: 268). For human XIAP, the forward primer was 5′-[…]-3′ (SEQ ID NO: 269), the reverse primer was 5′-[…]-3′ (SEQ ID NO: 270), and the probe was 5′-(FAM)[…](TAMRA)-3′ (SEQ ID NO: 271). For human GAPDH, the forward primer was 5′-GAAGGTGAAGGTCGGAGTC-3′ (SEQ ID NO: 272), the reverse primer was 5′-GAAGATGGTGATGGGATTC-3′ (SEQ ID NO: 273), and the probe was 5′-(JOE)[…](TAMRA)-3′ (SEQ ID NO: 274). FAM is 6-carboxyfluoroscein, JOE is 6-carboxy-4,5-dichloro-2,7-dimethoxyfluoroscein, and TAMRA is 6-carboxy-N,N,N′,N′-tetramethylrhodamine. FAM and JOE are 5′ reporter dyes, while TAMRA is a 3′ quencher dye.
Relative quantification of gene expression was performed as described in the PE Biosystems manual using GAPDH as an internal standard. The comparative Ct (cycle threshold) method was used for relative quantitation of IAP mRNA levels compared to GAPDH mRNA levels. Briefly, real-time fluorescence measurements were taken at each PCR cycle and the threshold cycle (Ct) value for each sample was calculated by determining the point at which fluorescence exceeded a threshold limit of 30 times the baseline standard deviation. The average baseline value and the baseline SD are calculated starting from the third cycle baseline value and stopping at the baseline value three cycles before the signal starts to exponentially rise. The PCR primers and/or probes for the specific IAPs were designed to span at least one exon-intron boundary separated by 1 kb or more of genomic DNA, to reduce the possibility of amplifying and detecting genomic DNA contamination. The specificity of the signal, and possible contamination from DNA, were verified by treating some RNA samples with either DNase or RNase, prior to performing the reverse transcription and PCR reaction steps.
A portion of the 96 nucleobase oligomers depicted in Table 2 were rescreened for their ability to knock-down XIAP mRNA in NCI-H460 cells at […] post-transfection.
One day prior to transfection, H460 cells were plated in 6- or 96-well tissue culture plates. Phosphorothioate antisense oligonucleotides were delivered into cells with Lipofectamine 2000 (Life Technologies) in the form of liposome-oligonucleotide complexes. Following a 4.5 or 6 h transfection, the transfection medium was replaced with RPMI medium containing 10% FBS, and the cells incubated for another 24 or 48 h.
Total RNA from H460 cells treated with liposome-oligonucleotide complexes for 6 hours was immediately isolated using RNeasy mini spin columns and DNase treatment (QIAGEN, Valencia, Calif.). Specific XIAP mRNA was measured using a real-time quantitative RT-PCR method. […]
In general terms: In qPCR the cycle at which signal appears reflects the starting amount.

In series [2] the test system is XIAP mRNA. The series is described as above. The series is classed as cell-based, human. The note with it: 2 × 2 MBO; NCI-H460 cells, 9 hours post-transfection; relative level (mock control 1.01).

Oligonucleotides are written 5' to 3', each unit as a sugar letter and its base; * is a phosphorothioate linkage, no mark a phosphodiester; rarer units and linkages stand in square brackets, end groups in braces. Plain capitals give the bases only. d = 2'-deoxy (DNA); m = 2'-O-methyl

In the case of “ATTCGCACAAGTACGTGTT (antisense; sugars from the 5' end m2 d15 m2, backbone, methylation of C and T or U not given here; further chemistry not fully specified) [Code D12]”, the “XIAP down-regulation H460 RNA” value in the series on XIAP mRNA [1] is 77%. Moreover, the “XIAP RNA” value in the series on XIAP mRNA [2] is on record as 0.23.
The like results for “CAGATATATATGTAACACT (antisense; sugars from the 5' end m2 d15 m2, backbone and T or U not given here; further chemistry not fully specified) [Code C1]” were, in that order, 66% and 0.3.
For “CATCTTGGATACTGTCTTT (antisense; sugars from the 5' end m2 d15 m2, backbone, methylation of C and T or U not given here; further chemistry not fully specified) [Code D10]” the same measures were 55% and 0.54.
As for “CTAAATACTAGAGTTCGAC (antisense; sugars from the 5' end m2 d15 m2, backbone and T or U not given here; further chemistry not fully specified) [Code G2]”, the “XIAP down-regulation H460 RNA” value in the series on XIAP mRNA [1] amounted to 55%. Besides, the “XIAP RNA” value in the series on XIAP mRNA [2] turned out to be 0.44.
“CTTGAAAGTAATGACTGTG (antisense; sugars from the 5' end m2 d15 m2, backbone, methylation of C and T or U not given here; further chemistry not fully specified) [Code C11]”: the “XIAP down-regulation H460 RNA” value with XIAP mRNA [1] worked out at 52%. For the same sequence, in the series on XIAP mRNA [2], the “XIAP RNA” value is reported as 0.44.
In the case of “CTTTGATCTGGCTCAGACT (antisense; sugars from the 5' end m2 d15 m2, backbone, methylation of C and T or U not given here; further chemistry not fully specified) [Code G12]”, in the series with XIAP mRNA [1], the “XIAP down-regulation H460 RNA” value is reported as 76%. Besides, the “XIAP RNA” value in the series with XIAP mRNA [2] was 0.24.
For “GAAACCACATTTAACAGTT (antisense; sugars from the 5' end m2 d15 m2, backbone, methylation of C and T or U not given here; further chemistry not fully specified) [Code H12]” the same measures were 52% and 0.48.
For the sequence “GAGTAAAAAAAATGGATAA (mG*mAdGdTdAdAdAdAdAdAdAdAdTdGdGdAdTmA*mA; antisense) [Code G11]”, the “XIAP down-regulation H460 RNA” value in the series on XIAP mRNA [1] is recorded as 33%. For the same sequence, the “XIAP RNA” value in the series with XIAP mRNA [2] is 0.67.
For “GCAGAATAAAACTAATAAT (antisense; sugars from the 5' end m2 d15 m2, backbone and T or U not given here; further chemistry not fully specified) [Code D2]” the same measures were 39% and 0.66.
In the case of “GCGGCCCAAAACAAAGAAG (antisense CCGGCCCAAAACAAAGAAG; sugars from the 5' end m2 d15 m2, linkages s1 o16 s1 (s phosphorothioate, o phosphodiester), methylation of C not given here) [Code C7]”, in the series with XIAP mRNA [1], the “XIAP down-regulation H460 RNA” value was found to be 72%. Besides, the “XIAP RNA” value in the series on XIAP mRNA [2] worked out at 0.27.
For “GGAAGATTTGTTGAATTTG (antisense; sugars from the 5' end m2 d15 m2, backbone and T or U not given here; further chemistry not fully specified) [Code F7]” the same measures were 69% and 0.3.
For the sequence “GGCCAGTTCTGAAAGGACT (antisense; sugars from the 5' end m2 d15 m2, backbone and T or U not given here; further chemistry not fully specified) [Code D6]”, the “XIAP down-regulation H460 RNA” value with XIAP mRNA [1] worked out at 60%. Besides, the “XIAP RNA” value with XIAP mRNA [2] was found to be 0.39.
Take “GTCAAATCATTAATTAGGA (antisense; sugars from the 5' end m2 d15 m2, backbone and T or U not given here; further chemistry not fully specified) [Code B2]”: in the series on XIAP mRNA [1], the “XIAP down-regulation H460 RNA” value is 55%. Also, in the series on XIAP mRNA [2], the “XIAP RNA” value was found to be 0.45.
The like results for “GTGTCTGATATATCTACAA (antisense; sugars from the 5' end m2 d15 m2, backbone and T or U not given here; further chemistry not fully specified) [Code H5]” were, in that order, 39% and 0.59.
For “GTTAGTGATGGTGTTTTGT (antisense; sugars from the 5' end m2 d15 m2, backbone and T or U not given here; further chemistry not fully specified) [Code E9]” the same measures were 43% and 0.69.
On to “GTTATAGGAGCTAACAAAT (antisense; sugars from the 5' end m2 d15 m2, backbone and T or U not given here; further chemistry not fully specified) [Code B3]”, for which the “XIAP down-regulation H460 RNA” value with XIAP mRNA [1] is reported as 34%. For the same sequence, the “XIAP RNA” value with XIAP mRNA [2] is 0.64.
For “TACACTTAGAAATTAAATC (antisense; sugars from the 5' end m2 d15 m2, backbone, methylation of C and T or U not given here; further chemistry not fully specified) [Code A12]” the same measures were 46% and 0.54.
Take “TAGATCTGGAACCAGAACC (antisense; sugars from the 5' end m2 d15 m2, backbone, methylation of C and T or U not given here; further chemistry not fully specified) [Code C10]”: in the series on XIAP mRNA [1], the “XIAP down-regulation H460 RNA” value turned out to be 53%. The “XIAP RNA” value in the series with XIAP mRNA [2] came out at 0.56.
Take “TATATATTCTTGTCCCTTC (antisense; sugars from the 5' end m2 d15 m2, backbone, methylation of C and T or U not given here; further chemistry not fully specified) [Code A9]”: the “XIAP down-regulation H460 RNA” value in the series with XIAP mRNA [1] was 62%. For the same sequence, the “XIAP RNA” value in the series on XIAP mRNA [2] is 0.46.
The like results for “TCGGGTATATGGTGTCTGA (antisense; chemistry not fully specified) [Code A6]” were, in that order, 72% and 0.27.
For “TCTAGAGGGTGGCTCAGGA (antisense; sugars from the 5' end m2 d15 m2, backbone and T or U not given here; further chemistry not fully specified) [Code B1]” the same measures were 66% and 0.34.
In the case of “TCTGCCATGGATGGATTTC (antisense; sugars from the 5' end m2 d15 m2, backbone, methylation of C and T or U not given here; further chemistry not fully specified) [Code G7]”, the “XIAP down-regulation H460 RNA” value in the series on XIAP mRNA [1] is 41%. The “XIAP RNA” value with XIAP mRNA [2] stood at 0.66.
For “TGAATTAATTTTTAATATC (antisense; sugars from the 5' end m2 d15 m2, backbone and T or U not given here; further chemistry not fully specified) [Code H1]” the same measures were 13% and 0.87.
